Measurements reported in US20120035187A1 (priority 2009, published 2012).
Like-named read-outs stand apart in the source and are kept apart here.

Experiments:
PC12-HS cells [1] = experiment: Evaluation A: neurocyte (cell)-growth-promoting action, ALAMAR BLUE; assay type: cell-based, rat
Protocol: Then, the effects of test samples were judged as follows:
The relative value of 140 to 199: Equivalent effect to that of NK-4, symbol (∘); The relative value of 200 or higher: Stronger effect than that of NK-4, symbol ([…]). • The results are in Table 6.
The relative fluorescent intensity of each well was determined by using the fluorescent intensity of each well with cells, which had been cultured by admixing with D-MEM medium containing 10% by volume of FBS without any of the compounds, and the intensity of the resulting culture was regarded as 100%. The results are expressed as cell survival percentages (%) in Table 9. […]
The test was conducted twice for each test sample in a triplicate manner and the data were averaged.
Seven compounds as in Table 17, NK-234, NK-26, NK-9815, NK-9694, NK-28 and NK-147 as well as NK-4, were each dissolved in DMSO to give a concentration of 5 mg/ml. […] The test was conducted twice for each test sample in a triplicate manner and the data were averaged.

PC12-HS cells [2] = experiment: Evaluation B: neurite-outgrowth action in presence of NGF; assay type: cell-based, rat; conditions: for Percentage (%) of cells with neurite outgrowth: 50 μl/well of 2 μg/ml test solution + NGF final 5 ng/ml, 3 days
[3] = Hydroxyl radical-scavenging activity, ESR (Fenton reaction)
Protocol: Stock solutions, prepared by dissolving NK-4, NK-19, NK-53, NK-100, and NK-557 in DMSO, were respectively diluted with refined water to give concentrations of 3-folds higher than those in Table 14 and used as test sample solutions. As a positive control, a neuroprotectant, “edaravone”, commercialized as “RADICUT®” containing 3-methyl-1-phenyl-2-pyrazoline-5-one as an effective ingredient by Mitsubishi Tanabe Pharma Corporation, Osaka, Japan, was diluted with refined water to give a concentration of 3-folds higher than that in Table 14 for use. To 50 μl of refined water, 50 μl of 89 mM DMPO ([…]) commercialized by Dojindo Laboratories, Kumamoto, Japan, 50 μl of the test sample solution, and 50 μl of an aqueous solution containing 1 mM hydrogen peroxide, 1 mM FeSO4, and 1 mM DTPA, commercialized by Wako Pure Chemical Industries, Osaka, Japan, were added, mixed for 10 seconds using a vortex mixer and allowed to react in an incubator controlled at 37° for 40 seconds. After 30 seconds from completion of the reaction, the resulting reaction mixture was subjected to ESR measurement. A control solution was prepared by the same method as above except for using 50 μl of a diluted edaravone solution as a substitute for the test sample solution, and subjected to ESR measurement.
The reaction mixture for measuring hydroxyl or peroxyl radicals was poured into a flat quartz cell for ESR, set to “FREE RADICAL MONITOR JES-FR30”, an ESR apparatus commercialized by JOEL Ltd., Tokyo, Japan, and ESR was measured according to manual manner. The residual ratio of peroxyl radical (%) was determined as a relative value by defining the ESR value, obtained by using 0.1 M phosphate buffer as a substitute of the test sample solution, as 100. The results are in Tables 14 and 15. […] Therefore, the IC50 of edaravone was determined by another test using its higher concentration, and the result is also shown in Table 14. The conditions of the ESR measurement were set as follows: […]

PC12-HS cells [4] = conditions: 6-hydroxy dopa, 24 hours
Protocol: 6-Hydroxy dopa was used as a cytotoxic agent. Similarly as in Experiment 1, PC12-HS cells, which had been cultured in D-MEM medium supplemented with 10 v/v % FBS, were inoculated to 96-well microplates by 2×10^4/100 μl/well. […] Thereafter, the cells were fixed with 10% glutaraldehyde and the absorbance at 650 nm was measured by conventional dye-uptake method using methylene blue.

[5] = molecular target: T1, acetylcholine esterase (AchE) (Rattus norvegicus, UniProt P37136); experiment: biochemical; assay type: biochemical
T1 sequence (P37136 32-614): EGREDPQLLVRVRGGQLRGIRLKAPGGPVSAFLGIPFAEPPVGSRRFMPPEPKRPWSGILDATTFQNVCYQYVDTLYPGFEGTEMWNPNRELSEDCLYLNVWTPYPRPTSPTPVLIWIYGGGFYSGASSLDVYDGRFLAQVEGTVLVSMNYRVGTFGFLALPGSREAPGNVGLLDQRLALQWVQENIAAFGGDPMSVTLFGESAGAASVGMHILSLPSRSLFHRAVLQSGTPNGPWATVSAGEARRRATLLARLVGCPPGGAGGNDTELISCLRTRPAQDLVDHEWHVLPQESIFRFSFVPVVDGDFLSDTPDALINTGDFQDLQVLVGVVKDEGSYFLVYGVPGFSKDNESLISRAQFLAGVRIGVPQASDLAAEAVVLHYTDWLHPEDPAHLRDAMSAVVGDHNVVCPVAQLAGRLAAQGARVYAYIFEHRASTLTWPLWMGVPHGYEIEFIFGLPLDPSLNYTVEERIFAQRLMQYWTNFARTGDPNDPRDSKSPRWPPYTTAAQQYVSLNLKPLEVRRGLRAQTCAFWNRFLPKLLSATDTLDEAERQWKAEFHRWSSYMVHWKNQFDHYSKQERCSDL

[6] = 100 μl/well of 100 ng/ml test solution, 3 days, control = 100
[7] = compound concentration 25 ng/ml
[8] = compound concentration 50 ng/ml
[9] = compound concentration 100 ng/ml
[10] = compound concentration 200 ng/ml
[11] = compound concentration 80 ng/ml
[12] = compound concentration 400 ng/ml
[13] = compound concentration 2000 ng/ml
[14] = compound concentration 10000 ng/ml

Row | Structure (SMILES) | Action of enhancing cell growth (%) (PC12-HS cells [1]; [6]) | Percentage (%) of cells with neurite outgrowth (PC12-HS cells [2]) | Action of enhancing cell growth (%) (PC12-HS cells [1]; [7]) | Action on neurite outgrowth (%) (PC12-HS cells [2]; [11]) | Action on neurite outgrowth (%) (PC12-HS cells [2]; [12]) | Action on neurite outgrowth (%) (PC12-HS cells [2]; [13]) | Action on neurite outgrowth (%) (PC12-HS cells [2]; [14]) | further results
1 | CC1=CS\C(=C/C=C(\C=C\c2scc(C)[n+]2C)c2scc(C)[n+]2C)N1C.[I-].[I-] [NK-2] | 126% | 4% | – | – | – | – | – | –
2 | CCN1C(C)=CS\C1=C/C=C(\C=C\c1scc(C)[n+]1CC)c1scc(C)[n+]1CC.[I-].[I-] [NK-13] | 125% | 5% | 126 ± 12% | 10< % | 10< % | 10< % | 10< % | Action of enhancing cell growth (%) (PC12-HS cells [1]; [8]): 140 ± 7%; Action of enhancing cell growth (%) (PC12-HS cells [1]; [9]): 231 ± 84%; Action of enhancing cell growth (%) (PC12-HS cells [1]; [10]): 209 ± 24%
3 | CCCCN1C(C)=CS\C1=C/C=C(\C=C\c1scc(C)[n+]1CCCC)c1scc(C)[n+]1CCCC.[I-].[I-] [NK-24] | 581% | 33% | – | – | – | – | – | –
4 | CCCCCCCCCCCCN1C(C)=CS\C1=C/C=C(/C=C/c1scc(C)[n+]1CCCCCCCCCCCC)c1scc(C)[n+]1CCCCCCCCCCCC.[I-].[I-] [NK-32] | 199% | 16% | – | – | – | – | – | –
5 | CCCN1C(C)=CS\C1=C/C=C(\C=C\c1scc(C)[n+]1CCC)c1scc(C)[n+]1CCC.[I-].[I-] [NK-237] | 212% | 16% | – | – | – | – | – | –
6 | CCCCCCN1C(C)=CS\C1=C/C=C(\C=C\c1scc(C)[n+]1CCCCCC)c1scc(C)[n+]1CCCCCC.[I-].[I-] [NK-392] | 560% | 44% | 349 ± 63% | 44 ± 12% | 48 ± 2% | 76 ± 8% | 81 ± 10% | Action of enhancing cell growth (%) (PC12-HS cells [1]; [8]): 601 ± 93%; Action of enhancing cell growth (%) (PC12-HS cells [1]; [9]): 607 ± 71%; Action of enhancing cell growth (%) (PC12-HS cells [1]; [10]): 460 ± 41%
7 | CCCCCCCCCCN1C(C)=CS\C1=C/C=C(\C=C\c1scc(C)[n+]1CCCCCCCCCC)c1scc(C)[n+]1CCCCCCCCCC.[I-].[I-] [NK-2844] | 399% | 54% | – | – | – | – | – | –
8 | CCCCCN1C(C)=CS\C1=C/C=C(\C=C\c1scc(C)[n+]1CCCCC)c1scc(C)[n+]1CCCCC.[I-].[I-] [NK-2850] | 553% | 56% | – | – | – | – | – | –
9 | CCCCCCCCCCCN1C(C)=CS\C1=C/C=C(/C=C/c1scc(C)[n+]1CCCCCCCCCCC)c1scc(C)[n+]1CCCCCCCCCCC.[I-].[I-] [NK-9640] | 191% | 13% | – | – | – | – | – | –
10 | CCCCCCN1C=CC(=CC=C(C=Cc2cc[n+](CCCCCC)c3ccccc23)c2cc[n+](CCCCCC)c3ccccc23)c2ccccc21.[I-].[I-] [NK-9694] | – | – | 269 ± 17% | 45 ± 8% | 55 ± 14% | 38 ± 12% | 10< % | Action of enhancing cell growth (%) (PC12-HS cells [1]; [8]): 123 ± 88%; Action of enhancing cell growth (%) (PC12-HS cells [1]; [9]): 402 ± 111%; Action of enhancing cell growth (%) (PC12-HS cells [1]; [10]): 320 ± 36%; IC50 (μg/ml) of hydroxyl radical-scavenging activity [3]: 3.4 µg/mL; suppression of cytotoxicity by 6-hydroxy dopa (in words) (PC12-HS cells [4]): significantly suppressed; Survival-cell percentage (%) (PC12-HS cells [4]; compound 0.83 ng/ml): 62 ± 1%; Survival-cell percentage (%) (PC12-HS cells [4]; compound 3.3 ng/ml): 68 ± 2 %; Survival-cell percentage (%) (PC12-HS cells [4]; compound 13 ng/ml): 67 ± 0 %; Survival-cell percentage (%) (PC12-HS cells [4]; compound 50 ng/ml): 62 ± 3%; Survival-cell percentage (%) (PC12-HS cells [4]; compound 200 ng/ml): 47 ± 1%; Survival-cell percentage (%) (PC12-HS cells [4]; compound 800 ng/ml): 42 ± 1%
11 | CCCCCN1C=CC(=CC=C(C=Cc2cc[n+](CCCCC)c3ccccc23)c2cc[n+](CCCCC)c3ccccc23)c2ccccc21.[I-].[I-] [NK-9815] | – | – | 304 ± 26% | 68 ± 12% | 62 ± 12% | 56 ± 2% | 11 ± 2% | Residual ratio of AchE activity (%) ([5]; concentration of compound 0.78 μg/ml): 82 ± 2%; Residual ratio of AchE activity (%) ([5]; concentration of compound 1.56 μg/ml): 98 ± 24%; Residual ratio of AchE activity (%) ([5]; concentration of compound 3.13 μg/ml): 93 ± 36%; Residual ratio of AchE activity (%) ([5]; concentration of compound 6.25 μg/ml): 94 ± 16%; Residual ratio of AchE activity (%) ([5]; concentration of compound 12.5 μg/ml): 56 ± 7 %; Residual ratio of AchE activity (%) ([5]; concentration of compound 25 μg/ml): 41 ± 14 %; Residual ratio of AchE activity (%) ([5]; concentration of compound 50 μg/ml): 24 ± 4 %; IC50 ([5]; concentration that suppresses AchE activity by 50%, calculated from residual ratios): 17.3 µg/mL
